Experimental data taken from patent US20100003217A1, “Compounds and Pharmaceutical Compositions for the Treatment of Viral Infections” (priority 2008, published 2010).

Legend:
pig liver esterase = assay: Incubation with pig liver esterase; type: in vitro ADME; details: for Residual compound following incubation with pig liver esterase: Esterase 14 U, 60 min, 10 μM
Description: (§1) Pig liver esterase (14 U) suspended in incubation buffer (0.1 M potassium phosphate, pH 7.4) was incubated for 60 min at 37° C. with 10 μM Compound 1 from a stock solution in DMSO (final DMSO concentration was 0.1%); reaction was initiated with the addition of test article. Incubations with no protein served as controls. Reactions were terminated by the addition of 0.1 mL of stop solution (acetonitrile). The samples were vortex-mixed for 30 sec and then centrifuged at 10,000×g for 10 min. The supernatant was dried using a Labconco CentriVap concentrator and the dry residue reconstituted in water, transferred to an HPLC glass vial and analyzed by HPLC-UV method 2 (described above).
(§2) Metabolic stability of the proposed metabolites was conducted by incubating the chemically synthesized standards Compound 2, Compound 4 and Compound 3 as described above for Compound 1. When possible, formation of Compound 5 was verified by incubating samples with alkaline phosphatase (10 U) for 60 min at 37° C.

[1] = Incubation with rat liver cytosol; type: in vitro ADME; details: rat cytosol 1 mg/mL, 2 hours, 10 μM
Description: as §1, with “Pooled” for “Pig”, “cytosol (1.0 mg protein/mL)” for “esterase (14 U)”, “2 hours” for “60 min”, “control.” for “controls.”
as §2

[2] = Stability in human liver microsomes; type: in vitro ADME; details: for NADPH-dependent metabolism: human liver microsomes; for % Residual compound following incubation with liver microsomes: human microsomes 1 mg/mL; for % Residual Compound 1 / % Residual Compound 2: human liver microsomes 1 mg/mL; for % Residual Compound 2: 15 min
Description: Disappearance of parent Compound 1 was used to evaluate the in vitro metabolism thereof. Relative levels of unchanged Compound 1 were measured by HPLC-UV method 1. Residual Compound 1 is reported as percent difference from time zero or control. The HPLC-UV system was as follows:
Incubations with liver microsomes or cytosol were conducted in a final volume of 0.1 mL per incubation time point. […] The microsomal reaction was initiated by the addition of NADPH (3 mM final concentration). Incubations with (a) no protein or (b) no NADPH served as controls. Reactions were terminated by the addition of 0.2 mL of stop solution (acetonitrile). The samples were vortex-mixed for 30 sec and then centrifuged at 10,000×g for 10 min. The supernatant was dried using a Labconco CentriVap concentrator and the dry residue reconstituted in water, transferred to an HPLC glass vial and analyzed by HPLC-UV method 1 (described above).
as §2

[3] = Excretion of administered dose in rat urine and feces; type: in vivo, male Sprague-Dawley rats; details: IV; 24 h after [14C]Compound 1
[4] = as above; type: in vivo, male Sprague-Dawley rats; details: for Percent of Dose, Total (urine, feces and liver): Oral, 24 h after [14C]Compound 1
Description: Isotopically diluted [^14C]-Compound 1 was administered intravenously to male Sprague-Dawley rats at 50 mg/kg or by oral gavage at 100 mg/kg.
Percent of the administered dose (% AD) for parent drug and each metabolite at each collection period=(% of the total radioactivity in the sample attributed to the metabolite)*(total radioactivity expressed as % of the administered dose, recovered during the corresponding collection period).
The urine and feces of each animal were analyzed for radiolabel content.

[5] = rat, Group 1A: IV 50 mg/kg, termination 2 h
[6] = rat, Group 1B: IV 50 mg/kg, termination 6 h
[7] = rat, Group 1C: IV 50 mg/kg, termination 24 h
[8] = rat, Group 2A: PO 100 mg/kg, termination 2 h
[9] = rat, Group 2B: PO 100 mg/kg, termination 6 h
[10] = rat, Group 2C: PO 100 mg/kg, termination 24 h

CC(C)(CO)C(=O)SCCOP(N)(=O)OC[C@H]1O[C@@H](n2cnc3c(=O)[nH]c(N)nc32)[C@](C)(O)[C@@H]1O (mixture of isomers) [Compound 3, {9-[(2R)2-C-methyl-β-D-ribo-furanosyl]-guanin}-5′-yl-O-(hydroxy-tert-butyl-S-acyl-2-thioethyl) phosphoramidate]
Residual compound following incubation with pig liver esterase (pig liver esterase): 97%
Residual compound following incubation with liver cytosol [1]: 96%
NADPH-dependent metabolism ([2]; 60 min, 50 μM): 20-30%
% Residual compound following incubation with liver microsomes ([2]; 60 min, 50 μM, NADPH): 82%
% Residual compound following incubation with liver microsomes ([2]; 60 min, 50 μM, No Cofactor): 103%

CC(C)(CO)C(=O)SCCOP(=O)(NCc1ccccc1)OC[C@H]1O[C@@H](n2cnc3c(=O)[nH]c(N)nc32)[C@](C)(O)[C@@H]1O (mixture of isomers) [Compound 1, 3-hydroxy-2,2-dimethyl-thiopropionic acid S-(2-{[(2R,3R,4R,5R)-5-(2-amino-6-oxo-1,6-dihydro-purin-9-yl)-3,4-dihydroxy-4-methyl-tetrahydro-furan-2-ylmethoxy]-benzylamino-phosphoryloxy}-ethyl) ester]
Residual compound following incubation with pig liver esterase (pig liver esterase): 75%
Compound 1 converted to Compound 2 (pig liver esterase; pig liver esterase, 60-min incubation): 25%
Residual compound following incubation with liver cytosol [1]: 100%
Percent of Dose, Total (urine, feces and liver) [3]: 45.9% of Dose
Total excretion (% AD), total (urine + feces) ([4]; IV (1C)): 45.9 % AD
Percent of Dose, Total (urine, feces and liver) [4]: 65.6% of Dose
Total excretion (% AD), total (urine + feces) ([4]; PO (2C), urine data estimated): 65.6 % AD
Total excretion (urine + feces), % of the administered dose ([4]; rat, IV dose): 45.9%
radioactivity recovered in feces (% of dose) ([4]; rat, IV dose, 24 h): 39%
radioactivity recovered in urine (% of dose) ([4]; rat, IV dose, 24 h): 47%
Total excretion (urine + feces), % of the administered dose ([4]; rat, PO dose): 65.6%
Fecal Excretion (% AD) [4, 5]: 0.05 ± 0.08 % AD
Urinary + Fecal Excretion (% AD) [4, 5]: 26.0 ± 2.3 % AD
Urinary Excretion (% AD) [4, 5]: 25.9 ± 2.4 % AD
Fecal Excretion (% AD) [4, 6]: 0.13 ± 012 % AD
Urinary + Fecal Excretion (% AD) [4, 6]: 27.8 ± 4.9 % AD
Urinary Excretion (% AD) [4, 6]: 27.7 ± 4.9 % AD
Fecal Excretion (% AD) [4, 7]: 39.0 ± 4.0 % AD
Urinary + Fecal Excretion (% AD) [4, 7]: 86.0 ± 4.8 % AD
Urinary Excretion (% AD) [4, 7]: 46.9 ± 4.1 % AD
Fecal Excretion (% AD) [4, 8]: 0.001 ± 0.001 % AD
Urinary + Fecal Excretion (% AD) [4, 8]: 0.05 ± 0.06 % AD
Urinary Excretion (% AD) [4, 8]: 0.05 ± 0.06 % AD
Fecal Excretion (% AD) [4, 9]: 0.006 ± 0.005 % AD
Urinary + Fecal Excretion (% AD) [4, 9]: 0.36 ± 0.18 % AD
Urinary Excretion (% AD) [4, 9]: 0.36 ± 0.18 % AD
Fecal Excretion (% AD) [4, 10]: 91.3 ± 8.7 % AD
Urinary + Fecal Excretion (% AD) [4, 10]: 94.1 ± 8.9 % AD
Urinary Excretion (% AD) [4, 10]: 2.84 ± 0.82 % AD
% Residual Compound 1 ([2]; 10 μM, 0 min, NADPH): 100%
% Residual Compound 1 ([2]; 10 μM, 0 min, No Cofactor): 100%
% Residual Compound 1 ([2]; 10 μM, 30 min, NADPH): 52%
% Residual Compound 1 ([2]; 10 μM, 30 min, No Cofactor): 100%
% Residual Compound 1 ([2]; 10 μM, 60 min, NADPH): 34%
% Residual Compound 1 ([2]; 10 μM, 60 min, No Cofactor): 94%
NADPH-dependent metabolism ([2]; NADPH, 60 min, 10 μM): 66%

C[C@@]1(O)[C@H](O)[C@@H](COP(=O)(O)NCc2ccccc2)O[C@H]1n1cnc2c(=O)[nH]c(N)nc21 [Compound 2, [(2R)-2-methyl-β-D-ribofuranosyl]guanine-N-benzylaminyl-5′-monophosphate]
Residual compound following incubation with pig liver esterase (pig liver esterase): 0%
Residual compound following incubation with liver cytosol [1]: 0%
Percent of Dose, Total (urine, feces and liver) [3]: 0.76% of Dose
Percent of Dose, Total (urine, feces and liver) [4]: 0.001% of Dose
% Residual Compound 2 ([2]; 10 μM, NADPH): 0%
% Residual Compound 2 ([2]; 10 μM, No Cofactor): 0%
